Data set [1] has as its target T1, MMP-9 (92 kDa, gelatinase B; type IV collagenase) (Homo sapiens, UniProt P14780).
T1 construct: endogenous in cells; enzyme purified from the conditioned medium
The data set can be described thus: Assay of type IV collagenase inhibitors: activated MMP-9 with type IV collagenase activity kit substrate, fluorescent intensity. The class given is biochemical.

Where two headings read alike, the source gives them in different places.

What is called IC50 is the midpoint of a concentration-inhibition curve. High values mean weaker potency in that assay, low ones greater potency in that assay. In general, melting point refers to the temperature of the solid-liquid transition.

T1 sequence (P14780 107-707 limits assumed): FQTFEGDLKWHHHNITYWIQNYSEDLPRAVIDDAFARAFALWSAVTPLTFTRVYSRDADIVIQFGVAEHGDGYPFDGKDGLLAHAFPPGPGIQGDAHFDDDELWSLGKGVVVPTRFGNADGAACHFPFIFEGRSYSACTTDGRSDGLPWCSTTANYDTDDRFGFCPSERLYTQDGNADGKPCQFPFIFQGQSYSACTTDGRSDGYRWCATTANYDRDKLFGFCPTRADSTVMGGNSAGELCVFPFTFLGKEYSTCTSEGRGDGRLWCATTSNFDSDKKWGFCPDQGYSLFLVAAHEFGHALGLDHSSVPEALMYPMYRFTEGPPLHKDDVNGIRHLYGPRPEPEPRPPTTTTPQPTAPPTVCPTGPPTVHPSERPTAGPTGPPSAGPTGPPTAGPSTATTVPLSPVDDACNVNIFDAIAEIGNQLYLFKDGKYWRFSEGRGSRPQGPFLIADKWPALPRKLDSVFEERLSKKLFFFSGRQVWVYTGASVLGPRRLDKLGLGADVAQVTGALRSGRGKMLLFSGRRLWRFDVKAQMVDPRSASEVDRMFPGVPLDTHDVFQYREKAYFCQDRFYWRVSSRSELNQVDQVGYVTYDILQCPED

`CC(C)[C@@H](NS(=O)(=O)c1ccc(NC(=O)c2ccc(Br)cc2)cc1)C(=O)O` [Example 202]: the melting point fell in the range of 229 to 230 °C. Also, the IC50 in data set [1] came out at 11.4 nM.
`Cc1cnc(C(=O)Nc2ccc(S(=O)(=O)N[C@H](Cc3ccccc3)C(=O)O)cc2)cn1` [Example 204] showed a melting point of 236 to 237 °C. Besides, in data set [1], inhibition was half-maximal at 3950 nM (IC50).
For `Cn1cc(CC(NS(=O)(=O)c2ccc(-c3nnn(-c4ccccc4)n3)cc2)C(=O)O)c2ccccc21` (stereo not drawn) [Example 212] the same measures were 199 to 202 °C and 393 nM.
On to `O=C(O)C(Cc1c[nH]c2ccc(F)cc12)NS(=O)(=O)c1ccc(-c2nnn(-c3ccccc3)n2)cc1` (stereo not drawn) [Example 213], for which the melting point was 224 to 225 °C. Besides, in data set [1], the IC50 turned out to be 128 nM.
Regarding `CC(C)C[C@@H](NS(=O)(=O)c1ccc(-c2nnn(-c3ccccc3)n2)cc1)C(=O)O` [Example 214], the melting point is 202 to 204 °C. Moreover, the IC50 in data set [1] turned out to be 832 nM.
Compound `CC(C)[C@@H](NS(=O)(=O)c1ccc(-c2nnn(-c3ccccc3)n2)cc1)C(=O)O` [Example 215] yielded a melting point of 221 to 222 °C. This compound also displayed an IC50 in data set [1] (inhibition of type IV collagenase (MMP-9), concentration at which percent inhibition reaches 50%) of 110 nM.
`Cc1cccc2[nH]cc(CC(NS(=O)(=O)c3ccc(-c4nnn(-c5ccccc5)n4)cc3)C(=O)O)c12` (stereo not drawn) [Example 216] had a melting point of 145 to 148 °C. Moreover, the IC50 in data set [1] amounted to 107 nM.
For `CCC(C)[C@@H](NS(=O)(=O)c1ccc(-c2nnn(-c3ccccc3)n2)cc1)C(=O)O` (stereo partly drawn) [Example 221] the same measures were 205 to 207 °C and 316 nM.
For `CC(C)[C@@H](NS(=O)(=O)c1ccc(-c2nnn(-c3ccc(O)cc3)n2)cc1)C(=O)O` [Example 223] the same measures were 190 °C (dec.) and 349 nM.
`COc1ccc(-n2nnc(-c3ccc(S(=O)(=O)N[C@@H](C(=O)O)C(C)(C)C)cc3)n2)cc1` [Example 226] had a melting point of 204 to 207 °C. The same compound showed an IC50 in data set [1] of 166 nM.
`O=C(O)[C@@H](Cc1c[nH]c2ccccc12)NS(=O)(=O)c1ccc(-c2nnn(-c3ccc(F)cc3)n2)cc1` [Example 227] yielded a melting point of 203 to 205 °C. The compound also displayed an IC50 in data set [1] of 19.8 nM.
For `O=C(O)[C@@H](Cc1ccccc1)NS(=O)(=O)c1ccc(-c2nnn(-c3ccc(C(F)(F)F)cc3)n2)cc1` [Example 229] the same measures were 197 to 198 °C and 215 nM.
For `CC(C)(C)c1ccc(-n2nnc(-c3ccc(S(=O)(=O)N[C@H](Cc4ccccc4)C(=O)O)cc3)n2)cc1` [Example 236] the same measures were 224 to 226 °C and 304 nM.
For `O=C(O)[C@@H](Cc1ccccc1)NS(=O)(=O)c1ccc(-c2nnn(-c3ccc(Oc4ccccc4)cc3)n2)cc1` [Example 238], the melting point was 182 to 184 °C. Besides, the IC50 in data set [1] amounted to 2850 nM.
Take `O=C(O)[C@@H](Cc1ccccc1)NS(=O)(=O)c1ccc(-c2nnn(-c3ccc(O)cc3)n2)cc1` [Example 239]: the melting point lay in the range of 226 to 228 °C. This compound also registered an IC50 in data set [1] of 243 nM.
For `CC(C)[C@@H](NS(=O)(=O)c1ccc(-c2nnn(-c3ccc(Cl)cc3)n2)cc1)C(=O)O` [Example 244] the same measures were 223 to 225 °C and 16.5 nM.
For `CC(C)[C@H](C(=O)NO)N(C)S(=O)(=O)c1ccc(Oc2ccccc2)cc1` [Example 253] the same measures were 110 to 111 °C and 0.039 nM.
For `CC(C)[C@H](C(=O)NO)N(Cc1ccccc1)S(=O)(=O)c1ccc(Oc2ccccc2)cc1` [Example 254] the same measures were 148 to 150 °C and 0.63 nM.
On to `CC(C)[C@H](C(=O)O)N(C)S(=O)(=O)c1ccc(-c2nnn(-c3ccccc3)n2)cc1` [Example 256], for which the melting point was in the range of 206 to 207 °C. In data set [1], this compound showed an IC50 of 601 nM.
For `CC(C)C[C@H](C(=O)O)N(C)S(=O)(=O)c1ccc(-c2nnn(-c3ccccc3)n2)cc1` [Example 257] the same measures were 132 to 132.5 °C and 776 nM.
For `CSc1ccc(-c2ccc(S(=O)(=O)N(C)[C@@H](C(=O)O)C(C)C)s2)cc1` [Example 259] the same measures were 141 to 144 °C and 130 nM.
